Measured values as given in patent publication US10294248B2, “Beta-lactamase inhibitors” (VenatoRx Pharmaceuticals, Inc., priority 2013, dated 2019).

How the values were obtained:
[1] = biological target: T1, p99 AmpC β-lactamase (Class C) (Enterobacter cloacae, UniProt P05364); experiment: β-Lactamase inhibition, p99 AmpC; assay type: biochemical
T1 construct: made in house; host or cells: E. coli BL21(DE3)
Procedure: (§1) For SHV-5, Kpc-2, p99AmpC and OXA-1 β-lactamases, E. coli BL21(DE3) bacterial cells carrying expression plasmids (expressed as native untagged proteins) for the individual β-lactamases were grown in 1 L of Superbroth (Teknova Inc. Hollister, Calif.) supplemented with 100 μg/ml kanamycin selection and 1×5052 (0.5% glycerol, 0.05% glucose and 0.2% α-lactose) at 35° C. for 18-20 hours. Cells were harvested by centrifugation (4,000×g, 4° C., 20 min), resuspended in 50 ml of 10 mM HEPES pH 7.5 ( 1/20 of the initial volume). The cells were lysed by sonication (5 pulses of 45 seconds) at 45 W on ice. The lysates were clarified by centrifugation at 10,000×g for 40 minutes at 4° C. Samples were diluted 5-fold in 50 mM sodium acetate pH 5.0, stored overnight at 4° C., after which they were centrifuged at 10,000×g for 30 minutes to clarify, and filtered through 0.45 μm filters. The samples were loaded onto a 5 ml Capto S sepharose cation exchange column (GE Healthcare) pre-equilibrated with 50 mM sodium acetate pH 5.0. The column was washed with 5 column volumes of 50 mM sodium acetate pH 5.0 to wash out unbound protein and a linear gradient of NaCl (0 to 500 mM) was used to elute the protein (over 16 CV) from the column. Fractions were assayed for β-lactamase activity using Centa (Calbiochem, Gibbstown, N.J.) or Nitrocefin (EMD Millipore chemicals, Darmstadt, Germany) as a reporter β-lactamase substrate for activity in the isolated fractions. Active fractions were pooled, concentrated and further purified by gel filtration chromatography on a Superdex 75 prep grade gel filtration column (GE Healthcare, Piscataway, N.J.) pre-equilibrated in 50 mM Hepes pH 7.5, 150 mM NaCl. Active fractions were pooled concentrated, quantitated by BCA protein determination (Thermo Scientific, Rockford, Ill.), dialyzed into PBS and frozen at −80° C. in 20% glycerol until use.
(§2) An equal volume of diluted enzyme stock was added, and the plates were incubated at 37° C. for 15 min. Nitrocefin was used as substrate for p99 AmpC, VIM-2 and OXA-1 and dispensed into each well at a final concentration of 100 μM. Absorbance at 486 nm was immediately monitored for 10 min using a Biotek Powerwave XS2 microplate spectrophotometer using the GEN5 software package (Biotek Instruments, Winooski Vt.). In an analogous fashion, imipenem was used as substrate for Kpc-2 and Cefotaxime was used for SHV-5, while changes in absorbance upon hydrolysis of the β-lactam ring were monitored at 300 nm and 260 nm respectively in UV-transparent 96-well microtiter assay plates. Maximum rates of hydrolysis were compared to those in control wells (without inhibitors), and percentages of enzyme inhibition were calculated for each concentration of inhibitor. The concentration of inhibitor needed to reduce the initial rate of hydrolysis of substrate by 50% (IC50) was calculated as the residual activity of β-lactamase at 486 nm using GraFit version 7 kinetics software package (Erithacus Software, Surrey, UK).
(§3) Using the methodology described above, examples of the current invention were evaluated for their ability to inhibit β-lactamase enzymes from all four Ambler classifications (A through D). […] NT=Not tested.

[2] = test system: S. aureus MSSA-7 producing penicillinase PC-1; experiment: Broth microdilution MIC, S. aureus MSSA-7 PC-1; assay type: cell-based; conditions: fixed 4 μg/mL piperacillin; CAMHB, 16-20 hours at 37° C.
Source text: (§4) To determine the ability of test compounds to potentiate the inhibition of the growth of bacterial strains that produce beta-lactamase enzymes, classic cell based broth microdilution MIC assays were employed. Six bacteria strains producing beta-lactamase enzymes were used: E. coli expressing the Class A Extended Spectrum Beta-Lactamase (ESBL) CTX-M-15, E. cloacae expressing the Class C P99, K. pneumoniae expressing the Class A carbapenemase KPC-3, P. aeruginosa expressing the Class B carbapenemase VIM-2, K. pneumoniae expressing the class A carbapenemase KPC-2 and the class B carbapenemase VIM-4, and S. aureus producing the Class A penicillinase PC-1. The assay was conducted in Cation Adjusted Mueller Hinton Broth (CAMHB, BD #212322, BD Diagnostic Systems, Sparks, Md.). Bacteria strains were grown for 3-5 hours in CAMBH broth. Test compounds (Examples 1-30) were added to a microtiter plate in 2-fold serial dilutions in CAMHB in a final concentration range of 32 μg/mL to 0.25 μg/ml. An overlay of CAMHB containing a Beta-lactam was added to the compounds at a final static concentration of 4 μg/ml. […] In addition to the titration of test compounds the MICs of a panel of control beta-lactams is also tested to ensure the strains are behaving consistently from test to test. Once the test compound and antibiotics are added the plates can be inoculated according to CLSI broth microdilution method. After inoculation the plates are incubated for 16-20 hours at 37° C. then the Minimal Inhibitory Concentration (MIC) of the test compound is determined visually.
(§5) Using the methodology described above, examples of the current invention were evaluated for their ability to inhibit the growth of β-lactamase-producing bacteria in the presence of a β-lactam antibiotic.
(§6) Using the methodology described above in EXAMPLE III, exemplary compounds for Formula I or Formula Ia were evaluated for their ability to inhibit the growth of β-lactamase producing bacteria in the presence of a β-lactam antibiotic.

[3] = biological target: T2, VIM-2 metallo-β-lactamase (Class B) (Pseudomonas aeruginosa, UniProt Q9K2N0); experiment: β-Lactamase inhibition, VIM-2; assay type: biochemical; conditions: nitrocefin 100 μM, 486 nm; 15 min preincubation at 37° C., PBS pH 7.4
T2 construct: made in house; host or cells: E. coli BL21(DE3)
Procedure: For Vim-2 metallo β-lactamase, the procedure was identical with the following exceptions, first the protein was not pH adjusted to pH 5 with 50 mM sodium acetate, second, the chromatography step was changed to a 5 ml Q sepharose anion exchange column pre-equilibrated with 50 mM Hepes pH 7.5, and elution of the protein was achieved by a linear gradient of NaCl (0-600 mM). Finally, the VIM-2 purification required a second run (3rd step) on the Q sepharose anion exchange column to achieve acceptable purity (>90%).
as §2, §3

[4] = biological target: T3, KPC-2 β-lactamase (Class A carbapenemase) (Klebsiella pneumoniae, UniProt Q9F663); experiment: β-Lactamase inhibition, KPC-2; assay type: biochemical; conditions: imipenem substrate, 300 nm; 15 min preincubation at 37° C., PBS pH 7.4
T3 construct: made in house; host or cells: E. coli BL21(DE3)
Procedure: as §1, §2, §3

[5] = test system: E. coli ESBL4 expressing CTX-M-15; experiment: Broth microdilution MIC, E. coli ESBL4 CTX-M-15; assay type: cell-based; conditions: fixed 4 μg/mL ceftazidime; CAMHB, 16-20 hours at 37° C.
Source text: as §4, §5, §6

[6] = test system: E. cloacae 144200 expressing Class C P99 AmpC; experiment: Broth microdilution MIC, E. cloacae 144200 p99 AmpC; assay type: cell-based; conditions: fixed 4 μg/mL ceftazidime; CAMHB, 16-20 hours at 37° C.
Source text: as §4, §5, §6

[7] = test system: K. pneumoniae A-1797 expressing KPC-2 and VIM-4; experiment: Broth microdilution MIC, K. pneumoniae A-1797 KPC-2/VIM-4; assay type: cell-based; conditions: fixed 4 μg/mL meropenem; CAMHB, 16-20 hours at 37° C.
Source text: as §4, §5, §6

[8] = test system: K. pneumoniae 156319 expressing KPC-3; experiment: Broth microdilution MIC, K. pneumoniae 156319 KPC-3; assay type: cell-based; conditions: fixed 4 μg/mL meropenem; CAMHB, 16-20 hours at 37° C.
Source text: as §4, §5, §6

[9] = biological target: T4, SHV-5 β-lactamase (Class A ESBL) (Klebsiella pneumoniae, UniProt P0A3M1); experiment: β-Lactamase inhibition, SHV-5; assay type: biochemical
T4 construct: made in house; host or cells: E. coli BL21(DE3)
Procedure: as §1, §2, §3

[10] = test system: P. aeruginosa Ps296 expressing VIM-2; experiment: Broth microdilution MIC, P. aeruginosa Ps296 VIM-2; assay type: cell-based; conditions: fixed 4 μg/mL meropenem; CAMHB, 16-20 hours at 37° C.
Source text: as §4, §5, §6

T4 sequence (P0A3M1 22-286): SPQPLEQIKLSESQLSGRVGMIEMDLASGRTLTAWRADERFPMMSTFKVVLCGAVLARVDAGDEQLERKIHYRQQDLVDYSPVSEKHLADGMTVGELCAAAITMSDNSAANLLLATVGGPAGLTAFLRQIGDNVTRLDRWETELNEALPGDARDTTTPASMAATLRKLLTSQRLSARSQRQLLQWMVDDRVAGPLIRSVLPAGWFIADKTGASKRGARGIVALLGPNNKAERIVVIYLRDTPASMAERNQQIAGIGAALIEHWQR
T1 sequence (P05364 21-381): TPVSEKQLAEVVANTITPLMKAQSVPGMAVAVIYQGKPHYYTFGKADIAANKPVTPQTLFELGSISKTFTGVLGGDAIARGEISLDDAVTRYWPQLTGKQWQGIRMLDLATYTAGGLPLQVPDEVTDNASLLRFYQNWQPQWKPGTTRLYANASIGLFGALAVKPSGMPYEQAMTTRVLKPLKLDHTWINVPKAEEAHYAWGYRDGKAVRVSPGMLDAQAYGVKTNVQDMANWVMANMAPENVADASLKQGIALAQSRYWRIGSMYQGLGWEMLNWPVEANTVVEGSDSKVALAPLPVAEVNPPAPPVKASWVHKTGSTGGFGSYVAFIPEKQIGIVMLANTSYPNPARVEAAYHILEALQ
T3 sequence (Q9F663 25-293, looked up): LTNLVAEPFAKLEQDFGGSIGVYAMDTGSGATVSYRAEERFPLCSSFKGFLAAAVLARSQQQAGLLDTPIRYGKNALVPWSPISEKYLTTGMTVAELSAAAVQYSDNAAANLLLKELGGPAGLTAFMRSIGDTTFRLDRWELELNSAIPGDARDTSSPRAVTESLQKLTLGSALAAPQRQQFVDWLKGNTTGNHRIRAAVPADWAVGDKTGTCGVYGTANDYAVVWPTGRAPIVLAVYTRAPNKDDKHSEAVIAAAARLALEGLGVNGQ

Row | SMILES | IC50 [1] [nM] | MIC of example compound in presence of fixed β-lactam: Fixed Pip, S. aureus MSSA-7 PC-1 [2] | IC50 [3] [µM] | IC50 [4] [nM] | MIC of example compound in presence of fixed β-lactam: Fixed CAZ, E. coli ESBL4 CTX-M-15 [5] | MIC of example compound in presence of fixed β-lactam: Fixed CAZ, E. cl. 144200 p99 AmpC [6] | MIC of example compound in presence of fixed β-lactam: Fixed Mero, K. P. A-1797 KPC-2 VIM-4 [7] | MIC of example compound in presence of fixed β-lactam: Fixed Mero, K. P. 156319 KPC-3 [8] | IC50 [9] [nM] | MIC of example compound in presence of fixed β-lactam: Fixed Mero, P. aerug. Ps296 VIM-2 [10]
1 | NCCCN1CCC(CC(=O)N[C@H]2Cc3cccc(C(=O)O)c3OB2O)CC1 [Example 42, 3-{2-[1-(3-Amino-propyl)-piperidin-4-yl]-acetylamino}-2-hydroxy-3,4-dihydro-2H-benzo[e][1,2]oxaborinine-8-carboxylic acid] | < 100 | C (the MIC in the presence of <4 μg/mL of a β-lactamase inhibitor) | 1 to 10 | < 100 | C (the MIC in the presence of <4 μg/mL of a β-lactamase inhibitor) | C (the MIC in the presence of <4 μg/mL of a β-lactamase inhibitor) | A (an MIC of the fixed β-lactam antibiotic in the presence of >32 μg/mL of a β-lactamase inhibitor) | C (the MIC in the presence of <4 μg/mL of a β-lactamase inhibitor) | < 100 | B (the MIC in the presence of between 8 and 32 μg/mL of a β-lactamase inhibitor)
2 | N=C(N)N1CCC(CC(=O)N[C@H]2Cc3cccc(C(=O)O)c3OB2O)CC1 [Example 33, 3-[2-(1-Carbamimidoyl-piperidin-4-yl)-acetylamino]-2-hydroxy-3,4-dihydro-2H-benzo[e][1,2]oxaborinine-8-carboxylic acid] | < 100 | C (the MIC in the presence of <4 μg/mL of a β-lactamase inhibitor) | 1 to 10 | 100 to 1000 | C (the MIC in the presence of <4 μg/mL of a β-lactamase inhibitor) | C (the MIC in the presence of <4 μg/mL of a β-lactamase inhibitor) | B (the MIC in the presence of between 8 and 32 μg/mL of a β-lactamase inhibitor) | B (the MIC in the presence of between 8 and 32 μg/mL of a β-lactamase inhibitor) | < 100 | A (an MIC of the fixed β-lactam antibiotic in the presence of >32 μg/mL of a β-lactamase inhibitor)
3 | N=C(N)NCCN1CCN(CC(=O)N[C@H]2Cc3cccc(C(=O)O)c3OB2O)C(=O)C1 [Example 38, 3-{2-[4-(2-Guanidino-ethyl)-2-oxo-piperazin-1-yl]-acetylamino}-2-hydroxy-3,4-dihydro-2H-benzo[e][1,2]oxaborinine-8-carboxylic acid] | < 100 |  | 1 to 10 | 1000 to 10000 | C (the MIC in the presence of <4 μg/mL of a β-lactamase inhibitor) | C (the MIC in the presence of <4 μg/mL of a β-lactamase inhibitor) | A (an MIC of the fixed β-lactam antibiotic in the presence of >32 μg/mL of a β-lactamase inhibitor) | C (the MIC in the presence of <4 μg/mL of a β-lactamase inhibitor) | 100 to 1000 | B (the MIC in the presence of between 8 and 32 μg/mL of a β-lactamase inhibitor)
